Consider 5 molecules from patent US8507476B2, “Substituted arylamide diazepinopyrimidone derivatives” (Sanofi, priority 2008, dated 2013).

Where a name gives a salt, the structure may show the parent alone.

One series has as its target GSK3β (Homo sapiens, UniProt P49841). The series can be described thus: Inhibitory activity against GSK3β (33P-ATP phosphorylation of prephosphorylated GS1 peptide). In kind it is biochemical. Particulars: protocol 4: commercial GSK3beta (Millipore), 7.5 μM GS1 peptide, 10 μM ATP, 90 minutes at room temperature. The protocol: Inhibitory Activity of the Medicament of the Present Invention Against GSK3β Four different protocols can be used. In a first protocol: 7.5 μM of prephosphorylated GS1 peptide and 10 μM ATP (containing 300,000 cpm of ^33P-ATP) were incubated in 25 mM Tris-HCl, pH 7.5, 0.6 mM DTT, 6 mM MgCl2, 0.6 mM EGTA, 0.05 mg/ml BSA buffer for 1 hour at room temperature in the presence of GSK3beta (total reaction volume: 100 microliters). In a second protocol: 4.1 μM of prephosphorylated GS1 peptide and 42 μM ATP (containing 260,000 cpm ^33P-ATP) were incubated in 80 mM Mes-NaOH, pH 6.5, 1 mM Mg acetate, 0.5 mM EGTA, 5 mM 2-mercaptoethanol, 0.02% Tween 20, 10% glycerol buffer for 2 hours at room temperature in the presence of GSK3beta. In a third protocol: 7.5 μM of prephosphorylated GS1 peptide and 10 μM ATP (containing 300,000 cpm of ^33P-ATP) were incubated in 50 mM Hepes, pH 7.2, 1 mM DTT, 1 mM MgCl2, 1 mM EGTA, 0.01% Tween 20 buffer for one hour at room temperature in the presence of GSK3beta (total reaction volume: 100 microliters). In a fourth protocol: 7.5 μM of prephosphorylated GS1 peptide and 10 μM ATP (containing 300,000 cpm of ^33P-ATP) were incubated in 50 mM Hepes, pH 7.2, 1 mM DTT, 1 mM MgCl2, 1 mM EGTA, 0.01% Tween 20 buffer for 90 minutes at room temperature in the presence of commercial GSK3beta (Millipore) (total reaction volume: 100 microliters). Inhibitors were solubilised in DMSO (final solvent concentration in the reaction medium, 1%). The reaction was stopped with 100 microliters of a solution made of 25 g polyphosphoric acid (85% P2O5), 126 ml 85% H3PO4, H2O to 500 ml and then diluted to 1:100 before use. An aliquot of the reaction mixture was then transferred to Whatman P81 cation exchange filters and rinsed with the solution described above. Incorporated ^33P radioactivity was determined by liquid scintillation spectrometry. The phosphorylated GS-1 peptide had the following sequence: NH2-[…](P)EDEE-COOH. (Woodgett, J. R. (1989) Analytical Biochemistry 180, 237-241.

Usually melting point stands for the temperature, or range, at which the solid turns liquid. For orientation: IC50 means the concentration that gives 50% inhibition. High values mean lower potency, low ones higher potency.

GSK3β, sequence (P49841 whole entry): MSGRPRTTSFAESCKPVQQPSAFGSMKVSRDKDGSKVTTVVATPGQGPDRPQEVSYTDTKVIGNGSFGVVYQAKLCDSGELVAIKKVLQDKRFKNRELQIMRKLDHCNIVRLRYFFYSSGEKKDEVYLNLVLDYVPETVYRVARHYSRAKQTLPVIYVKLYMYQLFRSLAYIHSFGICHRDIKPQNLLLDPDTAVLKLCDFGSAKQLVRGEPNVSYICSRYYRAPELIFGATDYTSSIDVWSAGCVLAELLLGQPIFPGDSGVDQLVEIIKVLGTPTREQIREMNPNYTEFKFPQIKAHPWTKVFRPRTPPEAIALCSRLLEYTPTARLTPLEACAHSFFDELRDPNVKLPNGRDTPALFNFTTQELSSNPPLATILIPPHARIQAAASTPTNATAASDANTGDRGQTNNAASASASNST

`COc1cc(Cl)ccc1C(=O)NC1CN(C2CCCC2)CCn2c1nc(-c1ccncn1)cc2=O` (racemic) (as salt: HCl) [compound 7, (+/−)-4-Chloro-N-(7-cyclopentyl-4-oxo-2-pyrimidin-4-yl-4,5,6,7,8,9-hexahydro-1,4a,7-triaza-benzocyclohepten-9-yl)-2-methoxy-benzamide]: the melting point fell in the range of 243 to 245 °C.
For `COc1cc(Cl)ccc1C(=O)NC1CN(C2CCCC2)CCn2c1nc(-c1ccncn1)cc2=O` (racemic) [compound 7, (+/−)-4-Chloro-N-(7-cyclopentyl-4-oxo-2-pyrimidin-4-yl-4,5,6,7,8,9-hexahydro-1,4a,7-triaza-benzocyclohepten-9-yl)-2-methoxy-benzamide], the midpoint of inhibition at GSK3β, the IC50, lay at 46 nM.
For the molecule `CCOC(=O)N1CCn2c(nc(-c3ccncn3)cc2=O)C(NC(=O)c2ccccc2OC)C1` (racemic) [compound 21, (+/−)-9-(2-Methoxy-benzoylamino)-4-oxo-2-pyrimidin-4-yl-5,6,8,9-tetrahydro-4H-1,4a,7-triaza-benzocycloheptene-7-carboxylic acid ethyl ester], the melting point lay within 182 to 184 °C. Besides, inhibition at GSK3β was half-maximal at 5 nM (IC50).
As for `CCOC(=O)N1CCn2c(nc(-c3ccncc3)cc2=O)C(NC(=O)c2ccc(F)cc2OC)C1` (racemic) [compound 35, (+/−)-9-(4-Fluoro-2-methoxy-benzoylamino)-4-oxo-2-pyridin-4-yl-5,6,8,9-tetrahydro-4H-1,4a,7-triaza-benzocycloheptene-7-carboxylic acid ethyl ester], the melting point was in the range of 210 to 212 °C. The molecule also came in with an IC50 on GSK3β of 12 nM.
The molecule `COc1cc(Cl)ccc1C(=O)NC1CNCCn2c1nc(-c1ccncn1)cc2=O` (single isomer, unassigned; (+)) [Compound No. 12, (+)-4-Chloro-2-methoxy-N-(4-oxo-2-pyrimidin-4-yl-4,5,6,7,8,9-hexahydro-1,4a,7-triaza-benzocyclohepten-9-yl)-benzamide] came in with a melting point of 240 to 242 °C. Also, inhibition against GSK3β was half-maximal at 0.3 nM (IC50).
